ChEMBL document CHEMBL1201862, “PubChem BioAssay data set” (2004)
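48-hour exposure; five concentrations; linearly interpolated endpoints. GI50: concentration for 50% inhibition of growth.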 Calls of active or inactive are those of the source. Cut-off read from the data, not from the text of the source: active = GI50 up to about 1.1 µM and inactive = higher.

How the values were obtained:
Assay in all cases: DTP human tumour cell line panel, 48 h
M19-MEL = test system: M19-MEL
XF498 = test system: XF498
DLD-1 = test system: DLD-1
DMS-114 = test system: DMS-114
RXF 631 = test system: RXF 631
SNB-78 = test system: SNB-78
HOP-18 = test system: HOP-18
LXFL 529 = test system: LXFL 529
DMS-273 = test system: DMS-273

Row | Structure (SMILES) | GI50 (M19-MEL) | GI50 (XF498) | GI50 (DLD-1) | GI50 (DMS-114) | GI50 (RXF 631) | GI50 (SNB-78) | GI50 (HOP-18) | GI50 (LXFL 529) | GI50 (DMS-273)
1 | O=[N+]([O-])c1cccnc1S(=O)(=O)c1ccccc1 | 13.5 µM (inactive) | 13.1 µM (inactive) | 2.49 µM (inactive) | 3.18 µM (inactive) | 2.86 µM (inactive) | 11.2 µM (inactive) | 12.9 µM (inactive) | 2.4 µM (inactive) | 7.87 µM (inactive)
2 | O=C(O)c1oc2cccc3c2c1CCC3 | > 100 µM (inactive) | > 100 µM (inactive) | > 100 µM (inactive) | > 100 µM (inactive) | > 100 µM (inactive) | > 100 µM (inactive) | – | > 100 µM (inactive) | > 100 µM (inactive)
3 | CC(C)/C=C1\CCC(CN(C)C)C1=O (stereo unspecified) | 9.27 µM (inactive) | 1.91 µM (inactive) | 1.67 µM (inactive) | 3.19 µM (inactive) | – | 4.51 µM (inactive) | 3.36 µM (inactive) | 1.5 µM (inactive) | –
4 | O=C(NCC(=O)N1CCOC1=O)OCc1ccccc1 | > 100 µM (inactive) | > 100 µM (inactive) | > 100 µM (inactive) | > 100 µM (inactive) | – | > 100 µM (inactive) | > 100 µM (inactive) | – | > 100 µM (inactive)
5 | OC1=CN=C(c2ccccc2)Oc2ccccc21 | > 100 µM (inactive) | – | > 100 µM (inactive) | > 100 µM (inactive) | > 100 µM (inactive) | 80.4 µM (inactive) | – | > 100 µM (inactive) | > 100 µM (inactive)
6 | Cc1cc(N(CCC#N)S(=O)(=O)c2ccccc2)ccc1/C=C1\N=C(c2ccc(Cl)cc2)OC1=O | – | > 100 µM (inactive) | > 100 µM (inactive) | > 100 µM (inactive) | – | > 100 µM (inactive) | – | > 100 µM (inactive) | > 100 µM (inactive)
7 | CN(O)C(=O)Cc1ccccc1 | > 100 µM (inactive) | > 100 µM (inactive) | > 100 µM (inactive) | > 100 µM (inactive) | – | > 100 µM (inactive) | – | > 100 µM (inactive) | > 100 µM (inactive)
8 | CC(C)(C)c1ccc2c(c1)C(O)(c1ccccc1)c1cc(C(C)(C)C)ccc1C2(O)C(F)(F)F (stereo unspecified) | 1.85 µM (inactive) | 1.53 µM (inactive) | 2.03 µM (inactive) | 2.04 µM (inactive) | – | – | 2.2 µM (inactive) | 1.97 µM (inactive) | 1.74 µM (inactive)
9 | COc1ccc2c(c1)N1CCc3cc(OC)c(OC)cc3C1C2 (stereo unspecified) | 41.2 µM (inactive) | 26.5 µM (inactive) | 39.7 µM (inactive) | 37.6 µM (inactive) | – | > 100 µM (inactive) | > 100 µM (inactive) | 34 µM (inactive) | 43.3 µM (inactive)
10 | O=C(CC1=Nc2nnc(CCCCCCCc3nnc4n3C(=O)C(CC(=O)c3ccccc3)=N4)n2C1=O)c1ccccc1 | > 100 µM (inactive) | > 100 µM (inactive) | > 100 µM (inactive) | > 100 µM (inactive) | – | – | > 100 µM (inactive) | > 100 µM (inactive) | –
11 | O=[N+]([O-])C=C(c1ccc(Cl)cc1)c1ccc(Cl)cc1 | – | – | 13.9 µM (inactive) | 15.2 µM (inactive) | – | 18.2 µM (inactive) | – | 15.1 µM (inactive) | 5.69 µM (inactive)
12 | O=c1[nH]c(=O)n(C2CC(O)C(CO)O2)cc1C#Cc1ccc(F)cc1 (stereo unspecified) | > 100 µM (inactive) | > 100 µM (inactive) | > 100 µM (inactive) | > 100 µM (inactive) | – | > 100 µM (inactive) | > 100 µM (inactive) | > 100 µM (inactive) | > 100 µM (inactive)
13 | N=C(N)NNC(=O)CCn1[nH]c(=O)c(Cl)c(Cl)c1=O | > 100 µM (inactive) | > 100 µM (inactive) | > 100 µM (inactive) | > 100 µM (inactive) | > 100 µM (inactive) | – | > 100 µM (inactive) | > 100 µM (inactive) | > 100 µM (inactive)
14 | Cc1ccc(C)c(NC(=O)CCC(=O)CC(=O)C(C)(C)C)c1 | > 100 µM (inactive) | > 100 µM (inactive) | > 100 µM (inactive) | > 100 µM (inactive) | – | > 100 µM (inactive) | > 100 µM (inactive) | > 100 µM (inactive) | > 100 µM (inactive)
15 | O=S(=O)(C1=CC(S(=O)(=O)c2ccccc2)CN(Cc2ccccc2)C1c1cccc2ccccc12)c1ccccc1 (stereo unspecified) | > 69 µM (inactive) | – | > 69 µM (inactive) | > 69 µM (inactive) | > 69 µM (inactive) | > 69 µM (inactive) | – | – | > 69 µM (inactive)
16 | C[n+]1c2ccccc2cc2c(CNC(CCCNC(=N)N)C(=O)O)cccc21 (stereo unspecified) | 0.413 µM (active) | 2.07 µM (inactive) | 0.351 µM (active) | 0.232 µM (active) | 3.37 µM (inactive) | 2.31 µM (inactive) | 2.05 µM (inactive) | 0.733 µM (active) | 1.59 µM (inactive)
17 | O=C1[C@@H]2C(c3ccncc3)=NO[C@@H]2C(=O)N1c1ccc(Cc2ccc(N3C(=O)[C@H]4C(c5ccncc5)=NO[C@H]4C3=O)cc2)cc1 | > 100 µM (inactive) | – | > 100 µM (inactive) | > 100 µM (inactive) | > 100 µM (inactive) | > 100 µM (inactive) | > 100 µM (inactive) | 29.3 µM (inactive) | > 100 µM (inactive)
18 | O=C(Nc1ccn(CCI)c(=O)n1)c1ccccc1 | > 100 µM (inactive) | – | > 100 µM (inactive) | > 100 µM (inactive) | – | > 100 µM (inactive) | > 100 µM (inactive) | > 100 µM (inactive) | > 100 µM (inactive)
19 | O=C1OC(c2ccccc2)=N/C1=C\c1ccc2ccccc2c1 | > 100 µM (inactive) | > 100 µM (inactive) | > 100 µM (inactive) | > 100 µM (inactive) | – | > 100 µM (inactive) | > 100 µM (inactive) | – | –
20 | Sc1nnc(-c2ccnc(-c3nnc(S)[nH]3)c2)[nH]1 | > 100 µM (inactive) | > 79.1 µM (inactive) | > 100 µM (inactive) | > 100 µM (inactive) | – | > 100 µM (inactive) | > 100 µM (inactive) | > 100 µM (inactive) | > 100 µM (inactive)
21 | CSc1nc(O)c2cn(Cc3ccccc3)nc2n1 | > 100 µM (inactive) | – | > 70.5 µM (inactive) | > 100 µM (inactive) | – | > 100 µM (inactive) | > 100 µM (inactive) | 58.6 µM (inactive) | > 100 µM (inactive)
22 | COC(=O)C(C(=O)C(=O)Nc1ccccc1OC)c1csc(-n2nc(-c3ccccc3)cc2-c2ccccc2)n1 (stereo unspecified) | > 100 µM (inactive) | > 100 µM (inactive) | > 100 µM (inactive) | 49.5 µM (inactive) | > 100 µM (inactive) | > 100 µM (inactive) | 14.8 µM (inactive) | > 100 µM (inactive) | > 100 µM (inactive)
23 | CCOC(=O)c1nc(C)oc1C(F)(F)F | > 100 µM (inactive) | > 100 µM (inactive) | > 100 µM (inactive) | > 100 µM (inactive) | – | > 100 µM (inactive) | – | > 100 µM (inactive) | –
24 | COCOC1CCCC[C@@]1(OCCOCCO[C@@]1(c2ccccc2)CCCC[C@H]1OCOC)c1ccccc1 (stereo partly specified) | > 100 µM (inactive) | > 100 µM (inactive) | > 100 µM (inactive) | > 100 µM (inactive) | – | 55.3 µM (inactive) | > 100 µM (inactive) | > 100 µM (inactive) | > 100 µM (inactive)
25 | OC(CCl)CN1CC[N+]2(CC1)CC[N+]1(CCN(CC(O)CCl)CC1)CC2 (stereo unspecified) [PROSPIDIUM CHLORIDE] | > 50 µM (inactive) | > 50 µM (inactive) | – | 41.6 µM (inactive) | – | – | > 50 µM (inactive) | > 50 µM (inactive) | > 50 µM (inactive)
